Experimental data from US20120108667A1, “HYDROXY CERAMIDES AND ANALOGS THEREOF AND THEIR USE FOR PREVENTING OR TREATING CANCER” (priority 2010, published 2012).
Where “and” joins values, the source holds several entries; their conditions need not be identical. Equal entries are not always repeated. Where two headings read alike, the source gives them in different places.

Assays:
[1] = molecular target: T1, dhCer desaturase (Homo sapiens, UniProt O15121); test: Conversion of C6-dhCer analogs to their unsaturated analogs in MCF7 cells; format: cell-based; settings: 24 h treatment
T1 construct: endogenous in cells; host or cells: MCF7
T1 sequence (O15121 1-323): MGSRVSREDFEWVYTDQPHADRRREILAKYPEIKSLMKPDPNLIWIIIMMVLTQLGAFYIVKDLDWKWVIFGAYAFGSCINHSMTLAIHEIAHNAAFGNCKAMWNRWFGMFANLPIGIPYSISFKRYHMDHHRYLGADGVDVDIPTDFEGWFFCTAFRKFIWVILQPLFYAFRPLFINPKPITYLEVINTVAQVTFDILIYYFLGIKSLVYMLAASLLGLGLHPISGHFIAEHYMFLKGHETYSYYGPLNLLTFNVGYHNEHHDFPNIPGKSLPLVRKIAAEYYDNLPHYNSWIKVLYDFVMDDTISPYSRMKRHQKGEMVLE
Procedure: (§1) Advanced analyses were performed on a Thermo Finnigan TSQ 7000, triple-stage quadrupole mass spectrometer operating in a Multiple Reaction Monitoring (MRM) positive ionization mode as described (J. Bielawski, et al., Methods 39 (2006), p. 82; J. Bielawski, et al., Methods Mol. Biol. 579 (2009), p. 443). Quantitative analysis of the cellular level of 2′-OH—C6-Cers/dhCers and C6-Cer/dhCer was based on the calibration curves generated by spiking an artificial matrix with known amounts of target standards and an equal amount of the internal standard (IS). The target analyte to IS peak area ratios from the samples were similarly normalized to their respective IS and compared to the calibration curves using a linear regression model. Final results were expressed as the level of the particular SPLs/phospholipids (Pi) determined from the Bligh & Dyer lipid extract and expressed as SPLs/Pi (pmol/nmol).

[2] = test system: endogenous SPLs in MCF7 cells; test: LC-MS/MS analysis of endogenous SPLs in treated MCF7 cells; format: cell-based, human; settings: for elevation of cellular dhCer: 40 μM treatment
Procedure: (§2) MCF7 cells (breast adenocarcinoma, pleural effusion) were purchased from American type Culture Collection (ATCC, Rockville, Md., USA) and grown in RPMI 1640 media (Life Technologies, Inc) supplemented with 10% fetal calf serum (FCS, Summit Biotechnology, CO, USA) and maintained under standard incubator conditions (humidified atmosphere 95% air, 5% CO2, 37° C.). A parallel set of cells was used to determine cell proliferation and to prepare lipid extracts for MS analysis.
as §1

[3] = test system: MCF7 cells; test: LC-MS/MS cellular levels of exogenously added compounds in MCF7 cells; format: cell-based, human; settings: for cellular level of the analog, time course / cellular uptake, early level / cellular level of the analog, concentration dependent: MCF7 cells; for cellular level of the analog, time course / cellular uptake, early level: 10 μM; for cellular level of the analog, time course: up to 24 h; for cellular uptake, early level: up to ~1 h; for cellular accumulation: MCF7 cells (Example 6); for cellular level of the analog, concentration dependent: 24 h
Procedure: as §2, §1

[4] = test system: MCF7 cells; test: Cell proliferation of MCF7 cells (cell counts, Trypan blue, 24 h); format: cell-based, human; settings: for IC50: read-out: IC50, MCF7 cell growth inhibition
Procedure: as §2
MCF7 cells were seeded at a density of ˜50% (corresponding to 1×10^6 cells) in 10 ml of 10% FCS and, after an overnight incubation, were treated with the compounds at (0-50 μM) in ethanol (<0.1%) and the changes in cell numbers after 24 h were determined and expressed as a percentage of the untreated controls. Briefly, media were removed, cells were washed twice with PBS, detached using 1% Trypsin and centrifuged at 800 rpm. Cell pellets were resuspended in PBS and Trypan blue (Sigma Chemicals, St. Louis, Mo., USA) was added (1:1 dilution). Under a light microscope, the percentage of unstained and stained cells was assessed.

[5] = test system: HL60 leukemia cells; settings: previously reported; cited from earlier work
[6] = 10 μM, time-dependent experiment, data not shown

CCCCCCCCCCCCCCC[C@@H](O)[C@H](CO)NC(=O)CCCCC [C6-dhCer]
conversion to the corresponding unsaturated analog [1]: 42% | effect on Cer species, time dependent ([2]; 10 μM): elevated all Cer species | effect on cellular Sph, time dependent ([2]; 10 μM): slightly increased | cellular Cers level, time dependent ([2]; 10 μM, at 24 h): 280% | cellular dhCers level, time dependent ([2]; 10 μM, at 24 h): decreased to almost control level | effect on dhCer species, time dependent ([2]; 10 μM, data not shown): elevated all dhCer species | cellular Cers level, time dependent ([2]; 10 μM, up to 5 h): 310% | cellular dhCers level, time dependent ([2]; 10 μM, up to 5 h): 750% | elevation of cellular dhCer ([2]; 24 h): ~7 fold | endogenous Cer level ([2]; 40 μM, 24 h): 550% | increase of cellular dhSph ([2]; 40 μM, 24 h): ~5 fold | elevation of dhC16-Cer (C16-dhCer) ([2]; 24 h, results not shown): ≤ 13 fold | C16-Cer/C16-dhCer fold ratio ([2]; MCF7 cells): 50/13 | influence on levels of cellular Cers/dhCers ([2]; MCF7 cells): significantly increased the levels of their cellular long chain homologs | cellular Sph level (decrease to) ([2]; at a low concentration, 24 h): ~70% | effect on cellular dhCers ([2]; up to 10 μM, 24 h): did not induce elevation of cellular dhCers | cellular level of the analog, time course [3]: followed the curve of C6-Cer, however at a lower rate | concentration at which an inhibitory effect on cell growth is caused [4]: higher than 10 μM | IC50 [4]: ~38 µM and 38 µM

CCCCCCCCCCCCC/C=C/[C@@H](O)[C@H](CO)NC(=O)CCCCC [C6-Cer]
cellular Cers level, time dependent ([2]; 10 μM, at 24 h): 350% | cellular Cers level, time dependent ([2]; 10 μM, up to 5 h): 500% | increase of C14-Cer ([2]; 20 μM treatment, 24 h): ~40 fold | increase of C16-Cer ([2]; 20 μM treatment, 24 h): ~20 fold | increase of C18-Cer ([2]; 20 μM treatment, 24 h): ~80 fold | increase of C24-Cer ([2]; 20 μM treatment, 24 h): ~0.2 fold | increase of C24:1-Cer ([2]; 20 μM treatment, 24 h): fivefold | cellular S1P level ([2]; 20 μM, 24 h): 800% | endogenous Cer (total) level ([2]; 20 μM, 24 h): up to 900% | endogenous Sph level ([2]; 20 μM, 24 h): ≤ 600% | concentration from which all Cer species are elevated ([2]; 24 h): ≥ 5 µM | influence on levels of cellular Cers/dhCers ([2]; MCF7 cells): significantly increased the levels of their cellular long chain homologs | metabolism/conversion to cellular long chain 2′-OH homologs (2′-OHCer analogs) ([2]; MCF7 cells): not converted to the cellular 2′-OHCer analogs | cellular level of the analog, time course [3]: progressively increased up to 5 h followed by decrease at 24 h | cellular uptake, early level [3]: highest levels | IC50 ([4]; listed as C6-ceramide): 12 µM | IC50 [4]: ~12 µM

CCCCCCCCCCCCCCC[C@@H](O)[C@H](CO)NC(=O)[C@@H](O)CCCC [LCL466, (2S,3R,2′S)-2′-Hydroxy-C6-dihydroceramide]
conversion to the corresponding unsaturated analog [1]: up to 12% | effect on Cer species, time dependent ([2]; 10 μM): elevated all Cer species | cellular Cers level, time dependent ([2]; 10 μM, at 24 h): the same as for 5 h treatment | cellular dhCers level, time dependent ([2]; 10 μM, at 24 h): the same as for 5 h treatment | effect on dhCer species, time dependent ([2]; 10 μM, data not shown): elevated all dhCer species | cellular Cers level, time dependent ([2]; 10 μM, up to 5 h): 200% | cellular dhCers level, time dependent ([2]; 10 μM, up to 5 h): 200% | elevation of cellular dhCer ([2]; 24 h): ~19 fold | increase of cellular dhSph ([2]; 40 μM, 24 h): ~16 fold | cellular Sph level, concentration dependent ([2]; 24 h): elevation of cellular Sph | elevation of dhC16-Cer (C16-dhCer) ([2]; 24 h, results not shown): up to 25 fold | C16-Cer/C16-dhCer fold ratio ([2]; MCF7 cells): 50/25 | effectiveness as inducer of cellular dhCers, Cers, dhSph and Sph ([2]; MCF7 cells): three time more effective than C6-dhCer | cellular level of the analog, time course [3]: elevated up to 5 h reaching the level of C6-dhCer and remaining constant up to 24 h | IC50 ([4]; listed as (2′S)-2′-OH—C6-dhCer): ~12 µM and 12 µM

CCCCCCCCCCCCC/C=C/[C@@H](O)[C@H](CO)NC(=O)[C@H](C)O [(2′S)-2′-OH—C3-Cer]
potency relative to the other isomer [5]: much more potent then its (2′R)-isomer

CCCCCCCCCCCCCCC[C@@H](O)[C@H](CO)NC(=O)[C@H](O)CCCC [LCL467, (2S,3R,2′R)-2′-Hydroxy-C6-dihydroceramide]
conversion to the corresponding unsaturated analog [1]: up to 5% | endogenous Cer (total) level ([2]; 10 μM, 24 h, concentration-dependent experiment): ~150% | cellular Cers level, time dependent ([2]; 10 μM, at 24 h): ~140% | cellular dhCers level, time dependent ([2]; 10 μM, at 24 h): remained unchanged | decrease of long chain dhCers [2, 6]: 10-25% | increase of very long chain dhCers [2, 6]: 20-30% | cellular Cers level, time dependent ([2]; 10 μM, up to 5 h): did not affect | cellular dhCers level, time dependent ([2]; 10 μM, up to 5 h): did not affect | decrease of C16-Cer ([2]; 1-5 μM, 24 h): up to 60% | cellular Sph level, concentration dependent ([2]; 24 h): ~80% | effect on cellular dhSph ([2]; 24 h): did not affect | C14-dhCer level (decrease to) ([2]; 24 h, results not shown): 25 % control | elevation of dhC16-Cer (C16-dhCer) ([2]; 24 h, results not shown): did not elevate | effectiveness as inducer of cellular dhCers, Cers, dhSph and Sph ([2]; MCF7 cells): not effective | effect on cellular Cer ([2]; up to 5 μM, 24 h): did not affect | cellular level of the analog, time course [3]: showed the lowest level, remaining in a plateau between 2.5-24 h | effect of 20 μM treatment on cells ([4]; 20 μM): total cell death | IC50 ([4]; listed as (2′R)-2′-OH—C6-dhCer): ~8 µM and 8 µM

CCCCCCCCCCCCC/C=C/[C@@H](O)[C@H](CO)NC(=O)[C@H](O)CCCC [LCL366, (2S,3R,2′R,4E)-2′-Hydroxy-C6-ceramide]
cellular accumulation [3]: low cellular accumulation | cellular level of the analog, time course [3]: progressively decreased to the lowest level among all tested analogs at 24 h | cellular uptake, early level [3]: highest levels | cellular level of the analog, concentration dependent [3]: lowest level

CCCCCCCCCCCCC/C=C/[C@@H](O)[C@H](CO)NC(=O)[C@@H](O)CCCC [LCL367, (2S,3R,2′S,4E)-2′-Hydroxy-C6-ceramide]
cellular accumulation [3]: higher cellular accumulation | cellular level of the analog, time course [3]: elevated up to 2.5 h followed by a small decrease at 5 h and plateau to 24 h | cellular level of the analog, concentration dependent [3]: highest level
